Columns and labels:
L-FICD generation = experiment: Screening of 53 protease inhibitors from a protease library for L-FICD generation; format: cell-based
Description: To identify the protease(s) responsible for cleavage of H-FICD in an unbiased manner, we performed a screening of 53 protease inhibitors using a protease library. The best hits associated with the inhibition of L-FICD generation were MDL28170 and PD150606—two calpain inhibitors—along with MMP inhibitors and γ-secretase inhibitors. Calpain is the family of calcium-dependent cytosolic cysteine proteases expressed ubiquitously in mammals and many other organisms (Pfaff, M., Du, X. & Ginsberg, M. H. Calpain cleavage of integrin beta cytoplasmic domains. FEBS Lett 460, 17-22 (1999)), and calpain-dependent cleavages contribute to modulating various cellular functions such as apoptosis, proliferation and migration (Deshpande, R. V. et al. Calpain expression in lymphoid cells. Increased mRNA and protein levels after cell activation. J Biol Chem 270, 2497-2505 (1995). Svensson, L. et al. Calpain 2 controls turnover of LFA-1 adhesions on migrating T lymphocytes. PloS one 5, e15090, doi:10.1371/journal.pone.0015090 (2010).). […] Since calpain is activated by calcium, we examined if calcium signaling could compensate for M-CSF signaling to generate FICDs. In the absence of c-FMS signaling, calcium signaling was able to promote the cleavage of […] in the nucleus, and […] reversed the effect of calcium signaling on L-FICD processing (FIG.10C). […]

arthritic bone erosion = details: rheumatoid arthritis patients; cited from earlier work
[1] = tested on: FICD (mem, H-FICD, L-FICD); experiment: FICD in membrane, cytoplasmic and nuclear fractions of human OCPs, immunoblot; format: cell-based; details: for generation of H-FICD and L-FICD and cellular distribution of FICDs: human CD14+ cells stimulated with ligand (20 ng/ml)
Protocol: (a) Human CD14+ cells were cultured with M-CSF (20 ng/ml) for 8 hours to induce early signals and then DAPT (10uM) was added for 2 days. Protein expression of c-FMS, Na+K+ pump, Lamin B1 and α-tubulin, as determined by immunoblot. ME; membrane extracts, CE; cytoplasmic extracts, and NE; nuclear extracts. (b) Immunohistochemistry of DAPI and c-FMS [middle]. […] Scale: 200×. (c) Cells were starved for three hours and then stimulated with M-CSF for the indicated times. (d and e) Cells were treated with Imatinib (0.3 μM, d) or c-FMS blocking antibody (5 μg) prior to the addition of M-CSF. Protein expression of FICD was measured by immunoblot. Lamin B1 and α-tubulin were used as controls for nuclear and cytoplasmic fractions, respectively. (f) Human CD14+ cells were cultured with M-CSF (20 ng/ml) for 8 hours to induce early signals and then MDL 28170(5 uM). Immunoblot with anti c-FMS and Lamin B1 antibodies. (g and h) Calpain 1, 5, and 6 were knocked down with siRNAs. Cells were cultured with M-CSF for 12 hours. (g) Efficiency of knockdown of Calpain 1, 5, and 6. (h) Immunoblot of c-FMS and Lamin B1. All data are shown as mean±SEM. *,p<0.05 by two-tailed, unpaired t-test (g). Representative results from at least three independent experiments.
(A and B) Human CD14+ cells were cultured with M-CSF (20 ng/ml) for 8 hours to induce early signals and then (A) MDL 28170(0, 1, 2, 5 uM) or (B) PD150606 (0, 2, 5 uM) was added for 2 days. Immunoblot with anti c-FMS and α-tubulin antibodies in whole lysates(n=3). (C) Immunoblot of nuclear lysates with c-FMS and Lamin B1 antibodies. Cells were cultured with M-CSF for 12 hours, and then M-CSF was removed. Cells were subsequently treated with or without CaCl2 (10 mM) for an additional 24 hours. (D) Osteoclastogenesis assay. Human CD14+ cells were cultured with M-CSF, RANKL and MDL28170 for 4 days. […] Black scale bar is 100 μm. […] First two calpain cleavage sites in cytoplasmic domains of c-FMS were used for FICD constructs. (F) A schematic diagram of a FICD construct. Representative results from at least three independent experiments.
Whole cell extracts were prepared by lysis in buffer containing 1× Lamin sample buffer (Bio-rad) and 2-Mercaptoethanol (Sigma) or RIPA buffer (Sigma). The cell membrane-permeable protease inhibitor, Pefablock (1 mM), was added immediately prior to harvest cells. The membrane proteins were extracted with Mem-PER™ Plus Membrane Protein Extraction Kit (Thermorfisher scientific; 89842) according to manufacturer's instructions. To extracts of nucleus protein, cells were incubated in buffer A (10 mM Hepes, pH 7.9, 1.5 mM MgCl2, 10 mM KCl, 0.1 mM EDTA, 0.1 mM EGTA, proteinase inhibitor cocktail (Complete, Roche) and 1 mM DTT) for 15 min at 4° C. NP-40 was added to a final concentration of 0.5%. Nucleus was collected by centrifugation (5000 rpm, 5 min). The pellets were lysed by Bioruptor-ultrasonicator (UCD400, Diagenode) in buffer B (20 mM Hepes, pH 7.9, 0.4M NaCl, 10 mM KCl, 1 mM EDTA, 1 mM EGTA, 10% Glycerol, proteinase inhibitor cocktail and 1 mM DTT) and collected the supernatant by centrifugation (12,000 rpm, 10 min). The protein concentration of nuclear extracts was quantitated using the Bradford assay (Bio-Rad; 5000001). For immunoblot, proteins were separated on 7.5 or 10% SDS-PAGE gels, transferred to polyvinylidene difluoride membranes (PVDF, Millipore; ISEQ00010), and detected by antibodies as listed in the figure legends.

[2] = DAPT 10uM for 2 days after 8 hours M-CSF (20 ng/ml)

## O=C(O)/C(S)=C/c1ccc(I)cc1 [PD150606]
L-FICD generation
  inhibition of L-FICD generation (hit in screening): best hits

## denosumab: an anti-RANKL antibody
Arthritic bone erosion
  RA disease activity: without affecting
  progression of arthritic bone erosion: shows efficacy

## C[C@H](NC(=O)Cc1cc(F)cc(F)c1)C(=O)N[C@H](C(=O)OC(C)(C)C)c1ccccc1 [DAPT, N-[N-(3,5-difluorophenacetyl)-L-alanyl]-S-phenylglycine t-butyl ester]
[1]; [2]
  cytosol and nuclear FICDs: suppressed
  membrane-bound FICD: membrane-bound FICD accumulated

B1: M-CSF: ligand for c-FMS (protein, UniProt P09603 33-554, looked up)
Macrophage colony-stimulating …: EEVSEYCSHMIGSGHLQSLQRLIDSQMETSCQITFEFVDQEQLKDPVCYLKKAFLLVQDIMEDTMRFRDNTPNAIAIVQLQELSLRLKSCFTKDYEEHDKACVRTFYETPLQLLEKVKNVFNETKNLLDKDWNIFSKNCNNSFAECSSQDVVTKPDCNCLYPKAIPSSDPASVSPHQPLAPSMAPVAGLTWEDSEGTEGSSLLPGEQPLHTVDPGSAKQRPPRSTCQSFEPPETPVVKDSTIGGSPQPRPSVGAFNPGMEDILDSAMGTNWVPEEASGEASEIPVPQGTELSPSRPGGGSMQTEPARPSNFLSASSPLPASAKGQQPADVTGTALPRVGPVRPTGQDWNHTPQKTDHPSALLRDPPEPGSPRISSLRPQGLSNPSTLSAQPQLSRSHSSGSVLPLGELEGRRSTRDRRSPAEPEGGPASEGAARPLPRFNSVPLTDTGHERQSEGSFSPQLQESVFHLLVPSVILVLLAVGGLLFYRWRRRSHQEPQRADSPLEQPEGSPLTQDDRQVELPV
[1]
  generation of H-FICD and L-FICD and cellular distribution of FICDs: induced

B2: IL-34: ligand for c-FMS (protein, UniProt Q6ZMJ4 21-242, looked up)
Interleukin-34: NEPLEMWPLTQNEECTVTGFLRDKLQYRSRLQYMKHYFPINYKISVPYEGVFRIANVTRLQRAQVSERELRYLWVLVSLSATESVQDVLLEGHPSWKYLQEVETLLLNVQQGLTDVEVSPKVESVLSLLNAPGPNLKLVRPKALLDNCFRVMELLYCSCCKQSSVLNWQDCEVPSPQSCSPEPSLQYAATQLYPPPPWSPSSPPHSTGSVRPVRAQGEGLLP
[1]
  generation of H-FICD and L-FICD and cellular distribution of FICDs: induced

Source: US20220370463A1, “STABILIZED C-FMS INTRACELLULAR FRAGMENTS (FICD) PROMOTE OSTEOCLAST DIFFERENTIATION AND ARTHRITIC BONE EROSION” (New York Society for the Relief of the Ruptured and …, priority 2019, published 2022)
